# Measurements reported in ChEMBL document CHEMBL1152405, “Bis-anthracenyl isoxazolyl amides have enhanced anticancer activity” (Bioorg Med Chem Lett, 2009).
# Columns and labels:
# Format in all cases: functional
# [1] = system: OVCAR-4; test: Growth inhibition of human OVCAR4 cells after 24 hrs by MTT assay; details: OVCAR-4, 24 h
# [2] = system: A549; test: Growth inhibition of human A549 cells after 24 hrs by MTT assay; details: A549, 24 h
# [3] = system: IGROV-1; test: Growth inhibition of human IGROV1 cells after 24 hrs by MTT assay; details: IGROV-1, 24 h
# [4] = system: HCT-15; test: Growth inhibition of human HCT15 cells after 24 hrs by MTT assay; details: HCT-15, 24 h
# [5] = system: NCI/ADR-RES; test: Growth inhibition of human NCI/ADR-RES cells after 24 hrs by MTT assay
# [6] = system: UO-31; test: Growth inhibition of human UO31 cells after 24 hrs by MTT assay; details: UO-31, 24 h
# [7] = system: OVCAR-8; test: Growth inhibition of human OVCAR8 cells after 24 hrs by MTT assay; details: OVCAR-8, 24 h
# [8] = system: CAKI-1; test: Growth inhibition of human Caki1 cells after 24 hrs by MTT assay; details: CAKI-1, 24 h
# [9] = system: MDA-MB-435; test: Growth inhibition of human MDA-MB-435 cells after 24 hrs by MTT assay; details: MDA-MB-435, 24 h
# [10] = system: K562; test: Growth inhibition of human K562 cells after 24 hrs by MTT assay; details: K562, 24 h
# [11] = system: T47D; test: Growth inhibition of human T47D cells after 24 hrs by MTT assay
# [12] = system: NCI-H23; test: Growth inhibition of human NCI-H23 cells after 24 hrs by MTT assay; details: NCI-H23, 24 h
# [13] = system: A498; test: Growth inhibition of human A498 cells after 24 hrs by MTT assay; details: A498, 24 h
# [14] = system: NCI-H23; test: Growth inhibition of human NCI-H23 cells at 10 uM after 24 hrs by MTT assay relative to control; set-up: scale not given: the % may be the effect or the level left
# [15] = system: NCI-H460; test: Growth inhibition of human NCI-H460 cells at 10 uM after 24 hrs by MTT assay relative to control; set-up: scale not given: the % may be the effect or the level left
# [16] = system: U-251; test: Growth inhibition of human U251 cells at 10 uM after 24 hrs by MTT assay relative to control; set-up: scale not given: the % may be the effect or the level left
# [17] = system: SK-OV-3; test: Growth inhibition of human SKOV3 cells at 10 uM after 24 hrs by MTT assay relative to control; set-up: scale not given: the % may be the effect or the level left
# [18] = Growth inhibition of human Hs 578T cells at 10 uM after 24 hrs by MTT assay relative to control; set-up: scale not given: the % may be the effect or the level left
# [19] = system: HCC 2998; test: Growth inhibition of human HCC2998 cells at 10 uM after 24 hrs by MTT assay relative to control; set-up: scale not given: the % may be the effect or the level left
# [20] = Growth inhibition of human […] cells at 10 uM after 24 hrs by MTT assay relative to control; set-up: scale not given: the % may be the effect or the level left
# [21] = system: NCI-H226; test: Growth inhibition of human NCI-H226 cells after 24 hrs by MTT assay; details: NCI-H226, 24 h
# [22] = system: Malme-3M; test: Growth inhibition of human MALME-3M cells at 10 uM after 24 hrs by MTT assay relative to control; set-up: scale not given: the % may be the effect or the level left
# [23] = system: HCC 2998; test: Growth inhibition of human HCC2998 cells after 24 hrs by MTT assay; details: HCC 2998, 24 h
# [24] = system: MCF7; test: Growth inhibition of human MCF7 cells after 24 hrs by MTT assay; details: MCF7, 24 h
# [25] = system: HCT-116; test: Growth inhibition of human HCT116 cells after 24 hrs by MTT assay; details: HCT-116, 24 h
# [26] = system: SK-MEL-28; test: Growth inhibition of human SK-MEL-28 cells after 24 hrs by MTT assay; details: SK-MEL-28, 24 h
# [27] = system: A498; test: Growth inhibition of human A498 cells at 10 uM after 24 hrs by MTT assay relative to control; set-up: scale not given: the % may be the effect or the level left
# [28] = system: CAKI-1; test: Growth inhibition of human Caki1 cells at 10 uM after 24 hrs by MTT assay relative to control; set-up: scale not given: the % may be the effect or the level left
# [29] = system: HT-29; test: Growth inhibition of human HT-29 cells at 10 uM after 24 hrs by MTT assay relative to control; set-up: scale not given: the % may be the effect or the level left
# [30] = system: MCF7; test: Growth inhibition of human MCF7 cells at 10 uM after 24 hrs by MTT assay relative to control; set-up: scale not given: the % may be the effect or the level left
# [31] = system: MDA-MB-468; test: Growth inhibition of human MDA-MB-468 cells at 10 uM after 24 hrs by MTT assay relative to control; set-up: scale not given: the % may be the effect or the level left
# [32] = system: RXF 393; test: Growth inhibition of human RXF393 cells at 10 uM after 24 hrs by MTT assay relative to control; set-up: scale not given: the % may be the effect or the level left
# [33] = system: OVCAR-3; test: Growth inhibition of human OVCAR-3 cells after 24 hrs by MTT assay; details: OVCAR-3, 24 h
# [34] = read-out: LC50 (the source's name)
# [35] = read-out: pLC50 (the source's name) (converted)
smiles,measurement,setting,value
Cc1onc(-c2c3ccccc3c(Cl)c3ccccc23)c1C(=O)Nc1cc(C(=O)NCCCN(C)CCCNC(=O)c2cc(NC(=O)c3c(-c4c5ccccc5c(Cl)c5ccccc45)noc3C)cn2C)n(C)c1,TGI,[1],2880 nM
same,GI50,[1]; read-out: GI50,1490 nM
same,CC50,[1]; [34],5560 nM
same,GI50,[1]; read-out: pGI50 (converted),1480 nM
same,CC50,[1]; [35],5620 nM
same,TGI,[2],2850 nM
same,GI50,[2]; read-out: GI50,1280 nM
same,GI50,[2]; read-out: pGI50 (converted),1290 nM
same,TGI,[3],3260 nM
same,GI50,[3]; read-out: GI50,1430 nM
same,CC50,[3]; [34],7420 nM
same,GI50,[3]; read-out: pGI50 (converted),1450 nM
same,CC50,[3]; [35],7410 nM
same,TGI,[4],3700 nM
same,GI50,[4]; read-out: GI50,1770 nM
same,GI50,[4]; read-out: pGI50 (converted),1780 nM
same,TGI,[5],> 100000 nM
same,GI50,[5]; read-out: GI50,13200 nM
same,CC50,[5]; [34],100000 nM
same,GI50,[5]; read-out: pGI50 (converted),13200 nM
same,CC50,[5]; [35],> 100000 nM
same,TGI,[6],3400 nM
same,GI50,[6]; read-out: GI50,1780 nM
same,GI50,[6]; read-out: pGI50 (converted),1780 nM
same,TGI,[7],4090 nM
same,GI50,[7]; read-out: GI50,1970 nM
same,GI50,[7]; read-out: pGI50 (converted),2000 nM
same,TGI,[8],5850 nM
same,GI50,[8]; read-out: GI50,2400 nM
same,CC50,[8]; [34],31300 nM
same,GI50,[8]; read-out: pGI50 (converted),2400 nM
same,CC50,[8]; [35],31600 nM
same,TGI,[9],3400 nM
same,GI50,[9]; read-out: GI50,1900 nM
same,GI50,[9]; read-out: pGI50 (converted),1910 nM
same,TGI,[10],2190 nM
same,GI50,[10]; read-out: GI50,822 nM
same,CC50,[10]; [34],5140 nM
same,GI50,[10]; read-out: pGI50 (converted),813 nM
same,CC50,[10]; [35],5130 nM
same,TGI,[11],5080 nM
same,GI50,[11]; read-out: GI50,1690 nM
same,CC50,[11]; [34],24500 nM
same,GI50,[11]; read-out: pGI50 (converted),1700 nM
same,CC50,[11]; [35],24500 nM
same,TGI,[12],3010 nM
same,GI50,[12]; read-out: GI50,1540 nM
same,CC50,[12]; [34],5850 nM
same,GI50,[12]; read-out: pGI50 (converted),1550 nM
same,CC50,[12]; [35],5890 nM
same,TGI,[13],17700 nM
same,GI50,[13]; read-out: GI50,2630 nM
same,CC50,[13]; [34],44400 nM
same,GI50,[13]; read-out: pGI50 (converted),2630 nM
same,CC50,[13]; [35],44700 nM
same,Activity,[14],-73.08%
same,Activity,[15],-100%
same,Activity,[16],-100%
same,Activity,[17],-100%
same,Activity,[18],-71.85%
same,Activity,[19],-91.29%
same,Activity,[20],-100%
same,TGI,[21],29400 nM
same,GI50,[21]; read-out: GI50,3150 nM
same,CC50,[21]; [34],100000 nM
same,GI50,[21]; read-out: pGI50 (converted),3160 nM
same,CC50,[21]; [35],> 100000 nM
same,Activity,[22],-86.28%
same,TGI,[23],2940 nM
same,GI50,[23]; read-out: GI50,1590 nM
same,CC50,[23]; [34],5420 nM
same,GI50,[23]; read-out: pGI50 (converted),1580 nM
same,CC50,[23]; [35],5370 nM
same,TGI,[24],2400 nM
same,GI50,[24]; read-out: GI50,1180 nM
same,CC50,[24]; [34],4900 nM
same,GI50,[24]; read-out: pGI50 (converted),1170 nM
same,CC50,[24]; [35],4900 nM
same,TGI,[25],2880 nM
same,GI50,[25]; read-out: GI50,1540 nM
same,GI50,[25]; read-out: pGI50 (converted),1550 nM
same,TGI,[26],2980 nM
same,GI50,[26]; read-out: GI50,1630 nM
same,CC50,[26]; [34],5460 nM
same,GI50,[26]; read-out: pGI50 (converted),1620 nM
same,CC50,[26]; [35],5500 nM
same,Activity,[27],103.19%
same,Activity,[28],-74.88%
same,Activity,[29],-91.6%
same,Activity,[30],-100%
same,Activity,[31],-100%
same,Activity,[32],-61.83%
same,TGI,[33],2610 nM
same,GI50,[33]; read-out: GI50,1310 nM
same,CC50,[33]; [34],5190 nM
same,GI50,[33]; read-out: pGI50 (converted),1320 nM
same,CC50,[33]; [35],5130 nM
